# Counter-ions that a name gives are not always drawn. Like-named read-outs stand apart in the source and are kept apart here.
# How the values were obtained:
# [1] = biological target: menin/MLL (terbium chelate-labeled menin, FITC-MBM1 peptide) (Homo sapiens (Human), UniProt O00255); assay: Menin/MLL homogenous time-resolved fluorescence (HTRF) assay; assay type: binding;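 note: IC50 from percent inhibition of HTRF signal, normalized between wells without competitor and wells with a saturating competitor that displaces FITC-MBM1 from His-tagged menin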
# Sequence of menin/MLL (terbium chelate-labeled menin, FITC-MBM1 peptide) (O00255 other isoform, or with tags, fused parts or gaps): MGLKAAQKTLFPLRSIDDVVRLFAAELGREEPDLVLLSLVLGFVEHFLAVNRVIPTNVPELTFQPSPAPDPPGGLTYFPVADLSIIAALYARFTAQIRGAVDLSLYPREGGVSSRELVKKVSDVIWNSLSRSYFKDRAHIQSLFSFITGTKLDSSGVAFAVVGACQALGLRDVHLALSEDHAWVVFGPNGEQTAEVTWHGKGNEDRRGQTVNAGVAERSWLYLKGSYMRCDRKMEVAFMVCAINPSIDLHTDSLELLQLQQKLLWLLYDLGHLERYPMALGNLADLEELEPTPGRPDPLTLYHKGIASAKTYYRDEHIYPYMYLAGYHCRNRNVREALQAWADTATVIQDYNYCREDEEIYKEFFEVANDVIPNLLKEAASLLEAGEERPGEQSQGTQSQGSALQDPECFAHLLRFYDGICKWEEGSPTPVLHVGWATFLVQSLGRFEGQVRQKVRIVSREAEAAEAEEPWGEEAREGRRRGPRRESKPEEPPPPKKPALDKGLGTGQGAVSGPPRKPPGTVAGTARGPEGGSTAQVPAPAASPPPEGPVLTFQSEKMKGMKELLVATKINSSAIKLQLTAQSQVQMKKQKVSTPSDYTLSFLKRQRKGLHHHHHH
# [2] = test system: MOLM14 cells; assay: Proliferation assay (spheroid growth, 8 days), MOLM14; assay type: cell-based, human; settings: MOLM14, 8 days, read-out: spheroid assay_OneTime MOLM14 IC50;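 note: spheroid size read as confluence by live-cell imaging, compounds added at a range of concentrations with 0.3% DMSO, DMSO-treated wells = 0%, highest reference dose = low control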
# [3] = test system: OCI-AML3 cells; assay: Proliferation assay (spheroid growth, 8 days), OCI-AML3; assay type: cell-based, human; settings: OCI-AML3, 8 days
# Description: The anti-proliferative effect of menin/MLL protein/protein interaction inhibitor test compounds was assessed in human leukemia cell lines. The cell line MOLM14 harbors a MLL translocation and expresses the MLL fusion protein MLL-AF9, respectively, as well as the wildtype protein from the second allele. OCI-AML3 cells that carry the NPM1c gene mutation were also tested. […] KO-52 was used as a control cell line containing two MLL (KMT2A) wildtype alleles in order to exclude compounds that display general cytotoxic effects.
# KO-52 and OCI-AML3 cell lines were propagated in alpha-MEM (Sigma Aldrich) supplemented with 20% heat-inactivated fetal bovine serum (HyClone), 2 mM L-glutamine (Sigma Aldrich) and 50 μg/ml gentamycin (Gibco).
# In order to assess the anti-proliferative effects, 200 MOLM14 cells, 200 OCI-AML3 cells or 300 KO-52 cells were seeded in 200 μl media per well in […] round bottom, ultra-low attachment plates (Costar, catalogue number 7007). Cell seeding numbers were chosen based on growth curves to ensure linear growth throughout the experiment. Test compounds were added at different concentrations and the DMSO content was normalized to 0.3%. Cells were incubated for 8 days at 37° C. and 5% CO2. Spheroid like growth was measured in real-time by live-cell imaging (IncuCyteZOOM, Essenbio, 4× objective) acquiring images at day 8. Confluence (%) as a measure of spheroid size was determined using an integrated analysis tool.
# In order to determine the effect of the test compounds over time, the confluence in each well as a measure of spheroid size, was calculated. Confluence of the highest dose of a reference compound was used as baseline for the LC (Low control) and the confluence of DMSO treated cells was used as 0% cytotoxicity (High Control, HC).
# GraphPad Prism(version 7.00) was used to calculate the IC50. Dose-response equation was used for the plot of % Effect vs Log 10 compound concentration with a variable slope and fixing the maximum to 100% and the minimum to 0%.
# [4] = test system: MEIS1 mRNA; assay: MEIS1 mRNA expression assay (Quantigene Singleplex) in MOLM14 cells; assay type: cell-based, human; settings: 48 hours incubation;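 note: MEIS1 transcript levels read by probe hybridization and normalized to RPL28 mRNA, with IC50 fitted to fold changes across a rising compound concentration series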
# [5] = HTRF-30 min incubation IC50, 30 min incubation
# [6] = read-out: HTRF-30 min incubation IC50, 30 min incubation
Compound,"IC50 [1, 5]","IC50 ([2]; Homo sapiens, MOLM-14, […])","IC50 ([3]; Homo sapiens, OCI-AML-3, […])","IC50 ([4]; Homo sapiens, MOLM-14, 48 h)",other results
"CCN(C)C[C@H](O)C[C@@H](C(C)C)N1CC2(CCN(c3ncnnc3Oc3ccc(F)cc3C(=O)N(CC)C(C)C)C2)C1 (relative stereo) [Compound 347, N-ethyl-2-((5-(2-((3*S,5R)-6-(ethyl(methyl)amino)-5-hydroxy-2-methylhexan-3-yl)-2,6-diazaspiro[3.4]octan-6-yl)-1,2,4-triazin-6-yl)oxy)-5-fluoro-N-isopropylbenzamide formate]",12 nM,> 940 nM,4980 nM,> 1000 nM,
"CC(C)[C@H](CCCN(C)C)N1CC2(CCN(c3ccnnc3Oc3ccc(F)cc3C(=O)N(C(C)C)C(C)C)C2)C1 (single isomer, unassigned) [Compound 76, (*S)-2-((4-(2-(6-(dimethylamino)-2-methylhexan-3-yl)-2,6-diazaspiro[3.4]octan-6-yl)pyridazin-3-yl)oxy)-5-fluoro-N,N-diisopropylbenzamide]",,,,,"IC50 [1, 6]: 2.56 nM; IC50 [2]: 340 nM; IC50 [3]: 2390 nM"
"CCN(C(=O)c1cc(F)ccc1Oc1nncnc1N1CCC2(C1)CN([C@@H](CCCCN)C(C)C)C2)C(C)C (single isomer, unassigned) [Compound 210, (*S)-2-((5-(2-(7-amino-2-methylheptan-3-yl)-2,6-diazaspiro[3.4]octan-6-yl)-1,2,4-triazin-6-yl)oxy)-N-ethyl-5-fluoro-N-isopropylbenzamide]",5.57 nM,> 940 nM,4630 nM,> 1000 nM,
"CCN(C(=O)c1cc(F)ccc1Oc1nncnc1N1CCC2(C1)CN([C@@H](CCO)C(C)C)C2)C(C)C (single isomer, unassigned) [Compound 215, (*S)—N-ethyl-5-fluoro-2-((5-(2-(1-hydroxy-4-methylpentan-3-yl)-2,6-diazaspiro[3.4]octan-6-yl)-1,2,4-triazin-6-yl)oxy)-N-isopropylbenzamide]",,,,,"IC50 [1, 6]: 88.8 nM; IC50 [2]: 1490 nM; IC50 [3]: 9240 nM; IC50 [4]: > 1000 nM"
"CCN(C(=O)c1cc(F)ccc1Oc1nncnc1N1CCC2(C1)CN([C@@H](CCN(C)C)C(C)C)C2)C(C)C (single isomer, unassigned) [Compound 225, (*S)-2-((5-(2-(1-(dimethylamino)-4-methylpentan-3-yl)-2,6-diazaspiro[3.4]octan-6-yl)-1,2,4-triazin-6-yl)oxy)-N-ethyl-5-fluoro-N-isopropylbenzamide fumarate]",8.31 nM,> 940 nM,7090 nM,> 1000 nM,
"CCN(C(=O)c1cc(F)ccc1Oc1nncnc1N1CCC2(C1)CN([C@H](CCN(C)CC(N)=O)C(C)C)C2)C(C)C (single isomer, unassigned) [Compound 231, (*R)-2-((5-(2-(1-amino-2-oxoethyl)(methyl)amino)-4-methylpentan-3-yl)-2,6-diazaspiro[3.4]octan-6-yl)-1,2,4-triazin-6-yl)oxy)-N-ethyl-5-fluoro-N-isopropylbenzamide]",1.77 nM,790 nM,1800 nM,~560 nM,
"CCN(C(=O)c1cc(F)ccc1Oc1nncnc1N1CCC2(C1)CN([C@@H](C[C@@H](C)CN(C)CCOC)C(C)C)C2)C(C)C (single isomer, unassigned) [Compound 241, N-ethyl-5-fluoro-N-isopropyl-2-((5-(2-((3*S,5*R)-6-((2-methoxyethyl)(methyl)amino)-2,5-dimethylhexan-3-yl)-2,6-diazaspiro[3.4]octan-6-yl)-1,2,4-triazin-6-yl)oxy)benzamide fumarate]",1.36 nM,180 nM,1120 nM,280 nM,
"CCN(C(=O)c1cc(F)ccc1Oc1nncnc1N1CCC2(C1)CN(C(C(C)C)C(C)CCN(C)CCOC)C2)C(C)C (single isomer, unassigned) [Compound 265, N-ethyl-5-fluoro-N-isopropyl-2-((5-(2-(6-((2-methoxyethyl)(methyl)amino)-2,4-dimethylhexan-3-yl)-2,6-diazaspiro[3.4]octan-6-yl)-1,2,4-triazin-6-yl)oxy)benzamide (mixture of R,S and S,R; or mixture of RR and S,S) fumarate]",0.29 nM,28 nM,61 nM,,
"CCN(C(=O)c1cc(F)ccc1Oc1nncnc1N1CCC2(C1)CN([C@H](C[C@H](CN(C)C)OC)C(C)C)C2)C(C)C (single isomer, unassigned) [Compound 314, 2-((5-(2-((3*R,5*R)-6-(dimethylamino)-5-methoxy-2-methylhexan-3-yl)-2,6-diazaspiro[3.4]octan-6-yl)-1,2,4-triazin-6-yl)oxy)-N-ethyl-5-fluoro-N-isopropylbenzamide fumarate]",1.53 nM,300 nM,,160 nM,
"CCN(CC)C[C@@H](O)C[C@H](C(C)C)N1CC2(CCN(c3ncnnc3Oc3ccc(F)cc3C(=O)N(CC)C(C)C)C2)C1 (single isomer, unassigned) [Compound 337, 2-(5-(2-((3*R,5*S)-6-(diethylamino)-5-hydroxy-2-methylhexan-3-yl)-2,6-diazaspiro[3.4]octan-6-yl)-1,2,4-triazin-6-yl)oxy)-N-ethyl-5-fluoro-N-isopropylbenzamide fumarate]",4.57 nM,,,> 1000 nM,
"CCN(C)C[C@@H](O)C[C@@H](C(C)C)N1CC2(CCN(c3ncnnc3Oc3ccc(F)cc3C(=O)N(CC)C(C)C)C2)C1 (single isomer, unassigned) [Compound 343, N-ethyl-2-((5-(2-((3*S,5S)-6-(ethyl(methyl)amino)-5-hydroxy-2-methylhexan-3-yl)-2,6-diazaspiro[3.4]octan-6-yl)-1,2,4-triazin-6-yl)oxy)-5-fluoro-N-isopropylbenzamide fumarate]",~3.93 nM,,,530 nM,
"CC(C)[C@H](C[C@H](O)CN(C)C)N1CC2(CCN(c3ncnnc3Oc3ccc(F)cc3C(=O)N(C(C)C)C(C)C)C2)C1 (single isomer, unassigned) [Compound 369, 2-((5-(2-((3*S,5*S)-6-(dimethylamino)-5-hydroxy-2-methylhexan-3-yl)-2,6-diazaspiro[3.4]octan-6-yl)-1,2,4-triazin-6-yl)oxy)-5-fluoro-N,N-diisopropylbenzamide fumarate]",1.82 nM,420 nM,,~360 nM,
"CCN(C)C[C@@H](O)C[C@@H](C(C)C)N1CC2(CCN(c3ncnnc3Oc3ccc(F)cc3C(=O)N(C(C)C)C(C)C)C2)C1 (single isomer, unassigned) [Compound 392, 2-((5-(2-((3*S,5*S)-6-(ethyl(methyl)amino)-5-hydroxy-2-methylhexan-3-yl)-2,6-diazaspiro[3.4]octan-6-yl)-1,2,4-triazin-6-yl)oxy)-5-fluoro-N,N-diisopropylbenzamide fumarate]",10.3 nM,,,,
COCCN(C)CCC[C@H](C(C)C)N1CC2(CCN(c3ncnnc3Oc3ccc(F)cc3C(=O)N([13CH2][13CH3])[13CH]([13CH3])[13CH3])C2)C1.O=C(O)C(=O)O [Compound 402],,7 nM,40 nM,,
"CCN(C(=O)c1cc(F)ccc1Oc1nnc(OC)nc1N1CCC2(C1)CN([C@H](CCCN)C(C)C)C2)C(C)C [Compound 407, (R)-2-((5-(2-(6-amino-2-methylhexan-3-yl)-2,6-diazaspiro[3.4]octan-6-yl)-3-methoxy-1,2,4-triazin-6-yl)oxy)-N-ethyl-5-fluoro-N-isopropylbenzamide formate]",0.086 nM,,,380 nM,
"COCCN(C)CCC[C@H](C(C)C)N1CC2(CCN(c3ncnnc3Oc3ccc(F)cc3C(=O)N(C)C(C)C)C2)C1 [Compound 415, (R)-5-fluoro-N-isopropyl-2-((5-(2-(6-((2-methoxyethyl)(methyl)amino)-2-methylhexan-3-yl)-2,6-diazaspiro[3.4]octan-6-yl)-1,2,4-triazin-6-yl)oxy)-N-methylbenzamide]",0.084 nM,,,,
"CCN(C(=O)c1cc(F)ccc1Oc1nnc(OC)nc1N1CCC2(C1)CN([C@H](CCCN(C)CCOC)C(C)C)C2)C(C)C [Compound 416, (R)-N-ethyl-5-fluoro-N-isopropyl-2-((3-methoxy-5-(2-(6-((2-methoxyethyl)(methyl)amino)-2-methylhexan-3-yl)-2,6-diazaspiro[3.4]octan-6-yl)-1,2,4-triazin-6-yl)oxy)benzamide formate]",~0.035 nM,,,49 nM,
"N-ethyl-(2-(((3-(2-(5 ethyl(methyl)amino)-5-methoxy-2-methylhexan-3-yl-2,&6-diazaspiro[3.4]octan-6-yl)-1,2,4-triazin-6-yl)oxy)-5-fluoro-N-isopropylbenzamide [Compound 313]",,,,,"IC50 [1, 6]: 1.99 nM; IC50 [4]: ~260 nM"
